Test results reported in patent publication US7772246B2 (Pfizer Inc., priority 2007, dated 2010).

These molecules were tested against T1, b-Raf (Homo sapiens, UniProt P15056, V600E) (assay: Raf cellular assay (phospho-Mek1/2 ELISA in A2058 cells)). Details: Table 3; human melanoma A2058 cells (b-Raf mutation), Mek1/2 Ser217/221 phosphorylation, 1 hour incubation; read-out: pMEK IC50.
T1 construct: endogenous in cells; host or cells: A2058 human melanoma cells
Assay type: cell-based
Description: Compounds of the present invention were evaluated for potency against b-Raf using a cellular assay as follows. The activity of Raf kinases in cells is determined by measuring the level of phosphorylation of Mek1/2 at serine 217/221, the site phosphorylated by Raf kinases in vivo. Mek1/2 Ser phosphorylation is measured using anti-phospho-Mek1/2 antibodies (Cell Signaling #9121) in an ELISA format.
Healthy growing human melanoma A2058 cells (harboring a b-Raf mutation) are used for the assay. A2058 cells are grown in 10% FBS DMEM medium. When the cells are near 85%+confluence, the cells are rinsed with PBS once and trypsinized with trypsin/EDTA for 3 minutes. The cells are resuspended in 10% FBS DMEM and are centrifuged down at 1000 rpm for 5 minutes. The cells are resuspended in 10% FBS DMEM and counted on a cell counter. The cells are seeded at 50,000 cells/well in a volume of 100 μL/well in 10% FBS DMEM in a 96 well flat-bottom plate. The negative control wells receive only 100 μL of 10% FBS DMEM medium without cells. The plate is incubated overnight in a cell culture incubator with 5% CO2 at 37° C.
On day 2, testing compounds are prepared in 10% FBS DMEM medium and serially diluted at 1:3 for 11 test concentrations. Each concentration of the compounds is tested in duplicate. The compound solutions are added at 25 μL/well to the corresponding wells in the cell plate, and 25 μL/well of the vehicle (0.5% DMSO in 10% FBS DMEM) is added to the negative control wells (no cells) and the positive control wells (cells without compounds). The plate is incubated for 1 hour in a cell culture incubator with 5% CO2 at 37° C. After 1 hour of incubation, the medium is removed, 100 μL/well of cell lysis buffer is added into the cell plate, and the plate is shaken for 15 minutes at room temperature. After 15 minutes, the cell lysates are transferred to an ELISA plate (pre-coated with anti-Mek1 anti-body, Cell Signaling #2352), and the plate is incubated with gentle shaking for 2 hours at room temperature. After 2 hours, the contents of the wells are aspirated and the wells are washed 4 times with wash buffer. 100 μL of phospho-Mek1/2 detection antibody (Cell Signaling #9121) is added into each well and the plate is incubated with gentle shaking for 1 hour at room temperature. After 1 hour, the wells are aspirated and washed 4 times with wash buffer. 100 μL of anti-rabbit IgG HRP-linked antibody (Cell Signaling #7074) is added to each well, and the plate is incubated with gentle shaking for 1 hour at room temperature. After 1 hour, the contents of the wells are aspirated and the wells are washed 4 times with wash buffer. 100 μL of TMB substrate solution (Sigma #T0440) is added into each well, and the plate is incubated with gentle shaking at room temperature for 10 to 20 minutes. After color development, 100 μL of stop solution (1N hydrochloric acid) is added to each well to terminate color development. The plate is read at 450 nm on an ELISA plate reader.

T1 sequence (P15056 whole entry V600E): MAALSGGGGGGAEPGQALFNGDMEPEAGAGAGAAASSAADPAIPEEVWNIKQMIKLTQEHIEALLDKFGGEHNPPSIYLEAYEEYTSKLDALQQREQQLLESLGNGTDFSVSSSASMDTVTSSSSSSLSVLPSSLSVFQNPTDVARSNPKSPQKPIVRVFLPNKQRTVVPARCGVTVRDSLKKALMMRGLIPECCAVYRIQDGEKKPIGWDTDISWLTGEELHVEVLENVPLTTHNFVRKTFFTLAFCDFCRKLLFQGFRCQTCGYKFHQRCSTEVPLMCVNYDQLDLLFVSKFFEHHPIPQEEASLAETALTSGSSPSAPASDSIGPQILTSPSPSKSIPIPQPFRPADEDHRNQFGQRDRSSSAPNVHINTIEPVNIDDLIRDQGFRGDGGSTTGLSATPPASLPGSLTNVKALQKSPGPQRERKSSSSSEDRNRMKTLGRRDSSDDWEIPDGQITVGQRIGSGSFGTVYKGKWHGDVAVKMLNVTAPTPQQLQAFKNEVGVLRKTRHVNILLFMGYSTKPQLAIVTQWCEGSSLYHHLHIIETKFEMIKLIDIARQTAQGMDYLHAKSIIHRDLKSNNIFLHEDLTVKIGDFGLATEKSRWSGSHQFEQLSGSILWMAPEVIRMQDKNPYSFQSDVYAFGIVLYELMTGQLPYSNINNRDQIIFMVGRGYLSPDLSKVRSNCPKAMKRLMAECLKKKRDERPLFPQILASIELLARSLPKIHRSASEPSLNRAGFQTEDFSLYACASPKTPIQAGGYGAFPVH

**Q.** COc1nc(-c2nn(C(C)(C)C)cc2-c2ccnc(NCCC#N)n2)cnc1N [Example B-30, 3-({4-[3-(5-amino-6-methoxypyrazin-2-yl)-1-tert-butyl-1H-pyrazol-4-yl]pyrimidin-2-yl}amino)propanenitrile] was tested. Which IC50 did it give?
**A.** The IC50 was 0.2 nM.

**Q.** How did the IC50 turn out when CC(C)(C)n1cc(-c2ccnc(NCCC#N)n2)c(-c2cnc3[nH]ccc3c2)n1 [Example B-74, 3-({4-[1-tert-butyl-3-(1H-pyrrolo[2,3-b]pyridin-5-yl)-1H-pyrazol-4-yl]pyrimidin-2-yl}amino)-propanenitrile] was run?
**A.** Its IC50 is 5.33 nM.

**Q.** How did the IC50 turn out when C[C@H](O)CNc1nccc(-c2cn([C@H]3C[C@H](F)C3)nc2-c2cnc3[nH]cc(Cl)c3c2)n1 [Example B-86, (S)-1-(4-(3-(3-chloro-1H-pyrrolo[2,3-b]pyridin-5-yl)-1-((1r,3r)-3-fluorocyclobutyl)-1H-pyrazol-4-yl)pyrimidin-2-ylamino)propan-2-ol] was run?
**A.** Its IC50 is 30.6 nM.

**Q.** CC(=O)Nc1cc(C)c(-c2nn(CC(F)F)cc2-c2ccnc(NCCC#N)n2)cn1 [Example B-26, N-{5-[4-{2-[(2-cyanoethyl)amino]pyrimidin-4-yl}-1-(2,2-difluoroethyl)-1H-pyrazol-3-yl]-4-methylpyridin-2-yl}acetamide] was tested. Which IC50 did it give?
**A.** The IC50 was 2200 nM.

**Q.** How did the IC50 turn out when CCn1cc(-c2ccnc(NC[C@H](C)O)n2)c(-c2cnc3[nH]cc(Cl)c3c2)n1 [Example B-61, (2S)-1-({4-[3-(3-chloro-1H-pyrrolo[2,3-b]pyridin-5-yl)-1-ethyl-1H-pyrazol-4-yl]pyrimidin-2-yl}amino)propan-2-ol] was run?
**A.** Its IC50 is 67.3 nM.

**Q.** For O=S(=O)(C1CC1)N1CCC(Nc2nccc(-c3cn(CC(F)F)nc3-c3cnc4[nH]ccc4c3)n2)CC1 [Example B-27, N-[1-(cyclopropylsulfonyl)piperidin-4-yl]-4-[1-(2,2-difluoroethyl)-3-(1H-pyrrolo[2,3-b]pyridin-5-yl)-1H-pyrazol-4-yl]pyrimidin-2-amine], which IC50 is on record?
**A.** The IC50 was 184 nM.

**Q.** For CC(C)n1cc(-c2ccnc(NC[C@H](C)O)n2)c(-c2cnc(N)c(O)c2)n1 [Example B-45, 2-amino-5-[4-(2-{[(2S)-2-hydroxypropyl]-amino}pyrimidin-4-yl)-1-isopropyl-1H-pyrazol-3-yl]pyridin-3-ol], which IC50 is on record?
**A.** The IC50 was 319 nM.

**Q.** Which IC50 does the source give for Nc1nccc(-c2cn(CC(F)F)nc2-c2cnc3[nH]cc(Cl)c3c2)n1 [Example B-107, 4-[3-(3-chloro-1H-pyrrolo[2,3-b]pyridin-5-yl)-1-(2,2-difluoroethyl)-1H-pyrazol-4-yl]pyrimidin-2-amine] here?
**A.** The IC50 was 8.06 nM.

**Q.** Which IC50 does the source give for Cc1c[nH]c2ncc(-c3nn(CC(F)F)cc3-c3ccnc(N)n3)cc12 [Example B-108, 4-[1-(2,2-difluoroethyl)-3-(3-methyl-1H-pyrrolo[2,3-b]pyridin-5-yl)-1H-pyrazol-4-yl]pyrimidin-2-amine] here?
**A.** Its IC50 is 11.2 nM.

**Q.** How did the IC50 turn out when C[C@H](O)CNc1nccc(-c2cn(C(C)(C)C#N)nc2-c2cnc3[nH]cc(Cl)c3c2)n1 [Example B-34, 2-[3-(3-chloro-1H-pyrrolo[2,3-b]pyridin-5-yl)-4-(2-{[(2S)-2-hydroxypropyl]amino}pyrimidin-4-yl)-1H-pyrazol-1-yl]-2-methylpropanenitrile] was run?
**A.** Its IC50 is 29.5 nM.

**Q.** With CC(=O)c1cc(-c2nn(CC(F)F)cc2-c2ccnc(NCCC#N)n2)cnc1N [Example B-78, 3-(4-(3-(5-acetyl-6-aminopyridin-3-yl)-1-(2,2-difluoroethyl)-1H-pyrazol-4-yl)pyrimidin-2-ylamino)propanenitrile] as the molecule, how does the IC50 read?
**A.** Its IC50 is 8.8 nM.

**Q.** With N#CCCNc1nccc(-c2cn(CC(F)F)nc2-c2cnc3[nH]ccc3c2)n1 [Example B-33, 3-({4-[1-(2,2-difluoroethyl)-3-(1H-pyrrolo[2,3-b]pyridin-5-yl)-1H-pyrazol-4-yl]pyrimidin-2-yl}amino)propanenitrile] as the molecule, how does the IC50 read?
**A.** Its IC50 is 4.48 nM.

**Q.** How did the IC50 turn out when COCCCn1cc(-c2ccnc(NC[C@H](C)O)n2)c(-c2cnc3[nH]cc(Cl)c3c2)n1 [Example B-110, (2S)-1-({4-[3-(3-chloro-1H-pyrrolo[2,3-b]pyridin-5-yl)-1-(3-methoxypropyl)-1H-pyrazol-4-yl]pyrimidin-2-yl}amino)propan-2-ol] was run?
**A.** The IC50 was 144 nM.

**Q.** For Cn1ccc2ncc(-c3nn(CC(F)F)cc3-c3ccnc(NCCC#N)n3)cc21 [Example B-38], which IC50 is on record?
**A.** Its IC50 is 18.7 nM.

**Q.** With N#CCCNc1nccc(-c2cn(CC(F)F)nc2-c2cnc3c(c2)CCN3)n1 [Example B-88, 3-(4-(1-(2,2-difluoroethyl)-3-(2,3-dihydro-1H-pyrrolo[2,3-b]pyridin-5-yl)-1H-pyrazol-4-yl)pyrimidin-2-ylamino)propanenitrile] as the molecule, how does the IC50 read?
**A.** The IC50 was 6.93 nM.

**Q.** With COc1cc(-c2nn(C3CC3)cc2-c2ccnc(NCCC#N)n2)cnc1N [Example B-57, 3-({4-[3-(6-amino-5-methoxypyridin-3-yl)-1-cyclopropyl-1H-pyrazol-4-yl]pyrimidin-2-yl}amino)-propanenitrile] as the molecule, how does the IC50 read?
**A.** The IC50 was 2.95 nM.

**Q.** For Cc1c[nH]c2ncc(-c3nn(CC(F)F)cc3-c3ccnc(NCCO)n3)cc12 [Example B-105, 2-({4-[1-(2,2-difluoroethyl)-3-(3-methyl-1H-pyrrolo[2,3-b]pyridin-5-yl)-1H-pyrazol-4-yl]pyrimidin-2-yl}amino)ethanol], which IC50 is on record?
**A.** The IC50 was 9.46 nM.

**Q.** For C[C@H](CO)n1cc(-c2ccnc(N)n2)c(-c2cnc3[nH]cc(Cl)c3c2)n1 [Example B-55, (2R)-2-[4-(2-aminopyrimidin-4-yl)-3-(3-chloro-1H-pyrrolo[2,3-b]pyridin-5-yl)-1H-pyrazol-1-yl]propan-1-ol], which IC50 is on record?
**A.** The IC50 was 63.6 nM.

**Q.** COc1cc(-c2nn(CC(F)F)cc2-c2ccnc(NCCC#N)n2)cnc1N [Example B-82, 3-(4-(3-(6-amino-5-methoxypyridin-3-yl)-1-(2,2-difluoroethyl)-1H-pyrazol-4-yl)pyrimidin-2-ylamino)propanenitrile] was tested. Which IC50 did it give?
**A.** Its IC50 is 0.627 nM.

**Q.** With Nc1nccc(-c2cn(C3CCNCC3)nc2-c2cnc3[nH]cc(Cl)c3c2)n1 [Example B-63, 4-[3-(3-chloro-1H-pyrrolo[2,3-b]pyridin-5-yl)-1-piperidin-4-yl-1H-pyrazol-4-yl]pyrimidin-2-amine] as the molecule, how does the IC50 read?
**A.** The IC50 was 43.7 nM.

**Q.** CC(C)(CO)n1cc(-c2ccnc(NCCC#N)n2)c(-c2cnc3[nH]ccc3c2)n1 [Example B-25, 3-({4-[1-(2-hydroxy-1,1-dimethylethyl)-3-(1H-pyrrolo[2,3-b]pyridin-5-yl)-1H-pyrazol-4-yl]pyrimidin-2-yl}amino)propanenitrile] was tested. Which IC50 did it give?
**A.** The IC50 was 5.98 nM.

**Q.** With C[C@H](O)CNc1nccc(-c2cn(CC(F)F)nc2-c2cnc3c(c2)CCN3)n1 [Example B-102, (2S)-1-({4-[1-(2,2-difluoroethyl)-3-(2,3-dihydro-1H-pyrrolo[2,3-b]pyridin-5-yl)-1H-pyrazol-4-yl]pyrimidin-2-yl}amino)propan-2-ol] as the molecule, how does the IC50 read?
**A.** The IC50 was 509 nM.

**Q.** How did the IC50 turn out when C[C@H](O)CNc1nccc(-c2cn(CC(F)F)nc2-c2cnc3[nH]cc(F)c3c2)n1 [Example B-101, (2S)-1-({4-[1-(2,2-difluoroethyl)-3-(3-fluoro-1H-pyrrolo[2,3-b]pyridin-5-yl)-1H-pyrazol-4-yl]pyrimidin-2-yl}amino)propan-2-ol] was run?
**A.** The IC50 was 107 nM.

**Q.** Which IC50 does the source give for COc1cncc(-c2nn([C@@H]3CCOC3)cc2-c2ccnc(NCCC#N)n2)c1 [Example B-73, 3-[(4-{3-(5-methoxypyridin-3-yl)-1-[(3R)-tetrahydrofuran-3-yl]-1H-pyrazol-4-yl}pyrimidin-2-yl)amino]propanenitrile] here?
**A.** The IC50 was 63.5 nM.

**Q.** For C[C@H](O)CNc1nccc(-c2cn(CC(F)F)nc2-c2cnc3c(c2)[C@@H](C)CN3)n1 [Example B-92, (S)-1-(4-(1-(2,2-difluoroethyl)-3-((R)-3-methyl-2,3-dihydro-1H-pyrrolo[2,3-b]pyridin-5-yl)-1H-pyrazol-4-yl)pyrimidin-2-ylamino)propan-2-ol], which IC50 is on record?
**A.** Its IC50 is 280 nM.

**Q.** How did the IC50 turn out when CC(C)n1cc(-c2ccnc3[nH]ccc23)c(-c2cnc3[nH]cc(Cl)c3c2)n1 [Example H-4, 3-chloro-5-(1-isopropyl-4-(1H-pyrrolo[2,3-b]pyridin-4-yl)-1H-pyrazol-3-yl)-1H-pyrrolo[2,3-b]pyridine] was run?
**A.** Its IC50 is 66.3 nM.

**Q.** Which IC50 does the source give for COc1cc(-c2nn([C@H]3C[C@H](F)C3)cc2-c2ccnc(NC[C@H](C)O)n2)cnc1N [Example B-85, (S)-1-(4-(3-(6-amino-5-methoxypyridin-3-yl)-1-((1r,3r)-3-fluorocyclobutyl)-1H-pyrazol-4-yl)pyrimidin-2-ylamino)propan-2-ol] here?
**A.** The IC50 was 21.9 nM.
